# Results reported in patent publication US20050107474A1, “Pharmaceutical compositions for the treatment of infections of the respiratory system by pathogenic agents” (priority 2002, published 2005).
# Where “and” joins values, the source holds several entries; their conditions need not be identical. Equal values may be shown once.
# Legend:
# S. aureus biofilm [1] = assay: Biofilm formation in polystyrene microplates, crystal violet, spectrophotometric at 492 nm; format: cell-based, Staphylococcus aureus; conditions: for reduction of the biofilm (formation) / decrease of biofilm production: NAC 8 mg/ml, 24 hours
# Experimental: (§1) The effects of NAC and TAPh on the biofilm produced by S. aureus were evaluated on four strains of the microorganism designated 1393, 1876, 1880 and 1890.
# Formation of the biofilms was quantified spectrophotometrically in polystyrene microplates with U-well geometry (Corning Incorporated, New York).
# In more detail, the effect of NAC on biofilm formation was evaluated as follows: overnight broth cultures in tryptic soy broth (TSB) with glucose added (0.25%) (TSBG) were diluted 1:100 in TSBG. Appropriate dilutions of NAC at concentrations varying respectively from 8 mg/ml to 0.007 mg/ml were added to the suspensions (100 μl each). After incubation at 37° C. for 24 hours, the microplates were washed three times with 10 mM phosphate buffer pH 7.4 (PBS), treated with Bouin fixative and then stained with crystal violet (0.01%).
# (§2) The biofilm adhering to the walls of the microplates was washed with PBS, suspended in 10% sarcosyl and measured spectrophotometrically at 492 nm.
# S. aureus [2] = assay: Bacterial growth in broth culture with NAC; format: cell-based, Staphylococcus aureus; conditions: NAC up to maximum concentration 8 mg/ml
# S. aureus [3] = assay: Viability (CFU/ml) of biofilm cells after sonication and seeding; format: cell-based, Staphylococcus aureus; conditions: maximum concentration, range over strains
# Experimental: as §1
# At the same time, the biofilms thus treated were submitted to sonication in order to disperse the cells that were still adhering, and these were seeded on rich medium after suitable dilution for calculating the vital elements surviving the various treatments.
# S. aureus biofilm [4] = assay: Disruption of fully consolidated biofilm (48 hours); format: cell-based, Staphylococcus aureus
# Experimental: as §1, §2
# (§3) The same technique was employed for calculating the residual quantity of biofilm after treatment with NAC alone and combined with TAPh on S. aureus. For this purpose, biofilms with two different degrees of maturity: initial (5 hours) and fully consolidated (48 hours) were exposed to suitable concentrations of NAC (from 8 mg/ml to 0.007 mg/ml) with added TAPh at the concentrations that can be reached in vivo in the pulmonary tree.
# S. aureus biofilm [5] = assay: Disruption of biofilm at initial maturation (5 hours); format: cell-based, Staphylococcus aureus; conditions: for disruption of biofilm formed after 5 hours (initial maturation): maximum concentration (8 mg/ml)
# Experimental: as §1, §2, §3
# P. aeruginosa = conditions: Antimicrob. Agents Chemother., 35, 1258, (1991); cited from earlier work
# S. epidermidis = conditions: J. Ant. Chem., 39, 643, (1997); cited from earlier work
smiles,measurement,setting,value
"CC(=O)N[C@@H](CS)C(=O)O [NAC, N-acetyl-cysteine]",reduction of the biofilm (formation),S. aureus biofilm [1]; S. aureus 1393,68.2%
same,decrease of biofilm production,S. aureus biofilm [1]; S. aureus 1876,30.3%
same,decrease of biofilm production,S. aureus biofilm [1]; S. aureus 1880,41.1%
same,reduction of the biofilm (formation),S. aureus biofilm [1]; S. aureus 1890,56.3%
same,glycocalyx production,S. aureus biofilm [1]; all the strains,inhibited glycocalyx production in all the strains
same,visible changes in bacterial growth,S. aureus [2],did not cause visible changes in bacterial growth
same,reduction in colony forming units per ml (CFU/ml),S. aureus [3]; cells of mature (consolidated) biofilms,33.7% to 70.6
same,reduction in colony forming units per ml (CFU/ml),S. aureus [3]; cells of the youngest biofilms (initial maturation),33.7% to 91
same,"reduction values with NAC on its own, fully consolidated biofilms (range over strains, restated)","S. aureus biofilm [4]; NAC alone, second range printed",58.1-62%
same,reduction of mucopolysaccharide material of fully consolidated biofilms,"S. aureus biofilm [4]; maximum concentration, four strains assayed, one value each, strain per value not given",62% and 60.5% and 58.1% and 65.5%
same,"reduction values with NAC on its own, initial biofilms (range over strains, restated)","S. aureus biofilm [5]; NAC alone, first range printed",32.5-65.5%
same,disruption of biofilm formed after 5 hours (initial maturation),S. aureus biofilm [5]; S. aureus 1876,32.5%
same,disruption of biofilm formed after 5 hours (initial maturation),S. aureus biofilm [5]; strain 1393,61.1%
same,disruption of biofilm formed after 5 hours (initial maturation),S. aureus biofilm [5]; strain 1880,57.3%
same,disruption of biofilm formed after 5 hours (initial maturation),S. aureus biofilm [5]; strain 1890,58.6%
same,disruption of biofilms,P. aeruginosa,ability to disrupt biofilms
same,inhibition of biofilm formation,S. epidermidis,inhibit their formation
